{"source": "patent US9499446B2", "about": "“Zinc-essential for flora and fauna” (priority 2012, dated 2016)", "key": {"wheat crops": {"tested_on": "wheat crops", "assay": "Experiment II: field experiments in wheat, irrigated north-west plain zone of Rajasthan", "assay_type": "in vivo", "details": "24 kg ha^−1", "procedure": "Field Experiments in wheat was carried out using the composition of the present invention in the soils of the irrigated north-west plain zone of Rajasthan. The soils of north-west plain zone are deficient in zinc and poor growth or deficiency symptoms appear on the wheat crops. Two foliar sprays were applied. First, during the vegetative growth stage on early appearance of the deficiency symptoms and the second foliar spray during the flag leaf initiation stage of the wheat crop. [table] The soil of the irrigated north-west plain zone of Rajasthan has a pH, of 8.27 and electric conductivity was 0.20 dS^−m. […] The diethylene triamine pentaacetic acid (DTPA) extractable zinc concentration in the soil was low."}, "Wheat cultivar PBW 550": {"tested_on": "Wheat cultivar PBW 550", "assay": "Experiment I: field experiments in wheat under different Zn treatments (PAU research farm and farmer's field, Jattpur)", "assay_type": "in vivo", "details": "soil application 62.5 kg ha^−1", "procedure": "Field Experiments in wheat was carried out using the composition of the present invention for two consecutive years in Punjab Agriculture University (PAU) Research Farm and Framer's field (Jattpur) loamy soil. Wheat cultivar PBW 550 seeds were sown during the first week of November. Two Zn chelates at different concentrations at two stages of wheat plant growth were applied through foliar application. In another treatment, Zn was added to the soil as basal dose at 62.5 kg ha^−1 using ZnSO4.7H2O salt. The first application of Zn chelate spray was done at maximum tillering stage and the second application was made at panicle initiation stage. Various parameters like plant height, tillers and 1000-grain weight were noted. Additionally during maturity in the month of April, the wheat grain and straw yield were noted.\nThe physio-chemical analyses of the soil before the start of the experiment was carried out at the two locations were the experiments were to be carried.\nThe plant parameters in wheat under different Zn treatments at PAU research farm and farmer's field are shown in Table 3 and Table 4 respectively and grain and straw yields in wheat under different Zn treatments at PAU research farm and farmer's field are shown in Table 5 and Table 6 respectively."}, "[1]": {"details": "PAU research farm, Rabi 2009-2010"}, "[2]": {"details": "PAU research farm, Rabi 2010-2011"}}}
{"smiles": "O=S(=O)([O-])[O-].[Zn+2]", "note": "[ZnSO4]", "values": [{"measurement": "1000 Grain weight", "setting": "wheat crops", "result": 39.73, "unit": "g"}, {"measurement": "Ear length (cm)", "setting": "wheat crops", "result": 10.18, "unit": "cm"}, {"measurement": "No. of tillers m^−1 row length", "setting": "wheat crops", "result": 122}, {"measurement": "Yield (tonne ha^−1) Grain", "setting": "wheat crops", "result": 4.57, "unit": "tonne ha^−1"}, {"measurement": "Yield (tonne ha^−1) Straw", "setting": "wheat crops", "result": 6.61, "unit": "tonne ha^−1"}, {"measurement": "Zn conc", "setting": "wheat crops", "result": 30.25, "unit": "mg/kg"}]}
{"smiles": "O.O.O.O.O.O.O.O=S(=O)([O-])[O-].[Zn+2]", "note": "[ZnSO4•7H2O]", "values": [{"measurement": "1000 grains weight", "setting": "Wheat cultivar PBW 550; [1]", "result": 38.4, "unit": "g"}, {"measurement": "Grain yield", "setting": "Wheat cultivar PBW 550; [1]", "result": 52.5, "unit": "q ha^−1"}, {"measurement": "Grain yield % increase over control", "setting": "Wheat cultivar PBW 550; [1]", "result": 10.8, "unit": "%"}, {"measurement": "Plant height (cm)", "setting": "Wheat cultivar PBW 550; [1]", "result": 76.7, "unit": "cm"}, {"measurement": "Straw yield", "setting": "Wheat cultivar PBW 550; [1]", "result": 65.0, "unit": "q ha^−1"}, {"measurement": "Straw yield % increase over control", "setting": "Wheat cultivar PBW 550; [1]", "result": 3.7, "unit": "%"}, {"measurement": "Tillers per square meter", "setting": "Wheat cultivar PBW 550; [1]", "result": 293}, {"measurement": "1000 grains weight", "setting": "Wheat cultivar PBW 550; [2]", "result": 38.7, "unit": "g"}, {"measurement": "Grain yield", "setting": "Wheat cultivar PBW 550; [2]", "result": 54.4, "unit": "q ha^−1"}, {"measurement": "Grain yield % increase over control", "setting": "Wheat cultivar PBW 550; [2]", "result": 13.3, "unit": "%"}, {"measurement": "Plant height (cm)", "setting": "Wheat cultivar PBW 550; [2]", "result": 97.69, "unit": "cm"}, {"measurement": "Straw yield", "setting": "Wheat cultivar PBW 550; [2]", "result": 65.7, "unit": "q ha^−1"}, {"measurement": "Straw yield % increase over control", "setting": "Wheat cultivar PBW 550; [2]", "result": 5.5, "unit": "%"}, {"measurement": "Tillers per square meter", "setting": "Wheat cultivar PBW 550; [2]", "result": 377}, {"measurement": "1000 grains weight", "setting": "Wheat cultivar PBW 550; farmer's field, Rabi 2009-2010", "result": 35.1, "unit": "g"}, {"measurement": "Grain yield", "setting": "Wheat cultivar PBW 550; farmer's field, Rabi 2009-2010", "result": 46.7, "unit": "q ha^−1"}, {"measurement": "Grain yield % increase over control", "setting": "Wheat cultivar PBW 550; farmer's field, Rabi 2009-2010", "result": 28.7, "unit": "%"}, {"measurement": "Plant height (cm)", "setting": "Wheat cultivar PBW 550; farmer's field, Rabi 2009-2010", "result": 76.6, "unit": "cm"}, {"measurement": "Straw yield", "setting": "Wheat cultivar PBW 550; farmer's field, Rabi 2009-2010", "result": 55.3, "unit": "q ha^−1"}, {"measurement": "Straw yield % increase over control", "setting": "Wheat cultivar PBW 550; farmer's field, Rabi 2009-2010", "result": 9.1, "unit": "%"}, {"measurement": "Tillers per square meter", "setting": "Wheat cultivar PBW 550; farmer's field, Rabi 2009-2010", "result": 272}, {"measurement": "1000 grains weight", "setting": "Wheat cultivar PBW 550; farmer's field, Rabi 2010-2011", "result": 34.3, "unit": "g"}, {"measurement": "Grain yield", "setting": "Wheat cultivar PBW 550; farmer's field, Rabi 2010-2011", "result": 46.0, "unit": "q ha^−1"}, {"measurement": "Grain yield % increase over control", "setting": "Wheat cultivar PBW 550; farmer's field, Rabi 2010-2011", "result": 28.5, "unit": "%"}, {"measurement": "Plant height (cm)", "setting": "Wheat cultivar PBW 550; farmer's field, Rabi 2010-2011", "result": 74.7, "unit": "cm"}, {"measurement": "Straw yield", "setting": "Wheat cultivar PBW 550; farmer's field, Rabi 2010-2011", "result": 54.7, "unit": "q ha^−1"}, {"measurement": "Straw yield % increase over control", "setting": "Wheat cultivar PBW 550; farmer's field, Rabi 2010-2011", "result": 20.8, "unit": "%"}, {"measurement": "Tillers per square meter", "setting": "Wheat cultivar PBW 550; farmer's field, Rabi 2010-2011", "result": 353}]}
